The melting point is the temperature, or range, at which the solid turns liquid.

One series relates to weeds. Put plainly: Post-emergence test (summary in text). It counts as in vivo. The following applies: result in words. Here is the method: Solvent: 5 parts by weight of acetone
Emulsifier: 1 part by weight of alkylaryl polyglycol ether
To produce a suitable preparation of active compound, 1 part by weight of active compound is mixed with the stated amount of solvent, the stated amount of emulsifier is added and the concentrate is diluted with water to the desired concentration.
Test plants which have a height of 5-15 cm are sprayed with the preparation of active compound such that the particular amounts of active compounds desired are applied per unit area. The concentration of the spray liquor is chosen so that the particular amounts of active compound desired are applied in 1000 l of water/ha.
After three weeks, the degree of damage to the plants is scored visually in % damage in comparison to the untreated control.
0%=no effect (like untreated control)

In a further series the test system is Amaranthus. Put plainly: Post-emergence test. It counts as in vivo. Particulars: greenhouse, scored after three weeks; for pest or weed control at 250 g/ha / % damage, Amaranthus: 250 g of ai./ha; for pest or weed control at 500 g/ha: 500 g of ai./ha. How it is done:
(§1) Post-emergence Test Solvent: 5 parts by weight of acetone Emulsifier: 1 part by weight of alkylaryl polyglycol ether To produce a suitable preparation of active compound, 1 part by weight of active compound is mixed with the stated amount of solvent, the stated amount of emulsifier is added and the concentrate is diluted with water to the desired concentration. Test plants which have a height of 5-15 cm are sprayed with the preparation of active compound such that the particular amounts of active compounds desired are applied per unit area. The concentration of the spray liquor is chosen so that the particular amounts of active compound desired are applied in 1000 l of water/ha. After three weeks, the degree of damage to the plants is scored visually in % damage in comparison to the untreated control. The Figures Denote: 0%=no effect (like untreated control) 100%=total destruction

In another series the test system is Chenopodium. Put plainly: Post-emergence test. The class given is in vivo. The following applies: greenhouse, scored after three weeks; for pest or weed control at 250 g/ha / % damage, Chenopodium: 250 g of ai./ha; for pest or weed control at 500 g/ha: 500 g of ai./ha. Here is the method:
as §1

For the next series, the system named is Polygonum. Put plainly: Post-emergence test. It counts as in vivo. Particulars: greenhouse, scored after three weeks; for pest or weed control at 250 g/ha / % damage, Polygonum: 250 g of ai./ha; for pest or weed control at 500 g/ha: 500 g of ai./ha. Here is the method:
as §1

In a further series the test system is Setaria. Put plainly: Post-emergence test. The class given is in vivo. The following applies: greenhouse, scored after three weeks; for pest or weed control at 250 g/ha / % damage, Setaria: 250 g of ai./ha; for pest or weed control at 500 g/ha: 500 g of ai./ha. Here is the method:
as §1

The next series relates to Viola. Put plainly: Post-emergence test. The class given is in vivo. Particulars: greenhouse, scored after three weeks; for pest or weed control at 250 g/ha / % damage, Viola: 250 g of ai./ha; for pest or weed control at 500 g/ha: 500 g of ai./ha. How it is done: as §1
The subject of the next series is Wheat. Put plainly: Post-emergence test. The class given is in vivo. Particulars: greenhouse, scored after three weeks; for plant injury at 250 g/ha / % damage, Wheat: 250 g of ai./ha; for plant injury at 500 g/ha: 500 g of ai./ha. Here is the method:
as §1

The mark [1] stands for this setting: Amaranthus, 504 h, read-out: % damage, Amaranthus.
The mark [2] stands for this setting: Chenopodium, 504 h, read-out: % damage, Chenopodium.
The mark [3] stands for this setting: Polygonum, 504 h, read-out: % damage, Polygonum.
The mark [4] stands for this setting: Setaria, 504 h, read-out: % damage, Setaria.
The mark [5] stands for this setting: 504 h, read-out: % damage, Viola.
Setting [6] is: Triticum aestivum, 504 h, read-out: % damage, Wheat.

`CCc1nc(NC(C)=O)nc(NC(C)c2ccc(Cl)cc2)n1` (centres unmarked) [Example 173] had a melting point of 182 °C. Besides, in the series with weeds, the activity against weeds result was “strong activity”.
The matching figures for `COCc1nc(NC(C)=O)nc(NC(C)c2ccc(SC)cc2)n1` (centres unmarked) [Example 103]: 141 °C and “strong activity”.
The matching figures for `CCC(Nc1nc(NC(C)=O)nc(C(F)(F)F)n1)c1ccc(Cl)cc1` (centres unmarked) [Example 90]: 116 °C and “strong activity”.
On to `CSc1ccc(C(C)Nc2nc(N)nc(C(F)(F)F)n2)cc1` (racemic) [Example 1, 2-amino4-trifluoromethyl-6-[1-(4-methylthio-phenyl)-ethylamino]-1,3,5-triazine], for which the melting point worked out at 111 °C.
Molecule `CC(=O)Nc1nc(NC(C)c2ccc(Cl)cc2)nc(C(C)Cl)n1` (centres unmarked) [Example 177] had a melting point of 110 °C. Moreover, the activity against weeds result in the series with weeds is “strong activity”.
In the same order, the values of `CSc1ccc(C(C)Nc2nc(N)nc(C(C)(Cl)Cl)n2)cc1` (centres unmarked) [Example 126] are 133 °C and “strong activity”.
In the same order, the values of `COc1ccc(C(C)Nc2nc(NC(C)=O)nc(C(F)(F)F)n2)cc1` (centres unmarked) [Example 84] are 108 °C and “strong activity”.
In the case of `CC(=O)Nc1nc(NC(C)c2ccc(Cl)cc2)nc(C(Cl)Cl)n1` (centres unmarked) [Example 175], the melting point stood at 131 °C. The activity against weeds result in the series with weeds is recorded as “strong activity”.
Take `CCc1nc(N)nc(NC(C)c2ccc(Cl)cc2)n1` (centres unmarked) [drawing 116]: the pest or weed control at 250 g/ha in the series with Amaranthus (setting [1]), with Chenopodium (setting [2]), with Polygonum (setting [3]), in the series on Setaria (setting [4]) and in the series with Viola (setting [5]) was 100% in each case. The plant injury at 250 g/ha with Wheat (setting [6]) came to 10%.
In the case of `CC(=O)Nc1nc(NC(C)c2ccc(Cl)cc2)nc(C(C)Cl)n1` (centres unmarked) [drawing 122], the pest or weed control at 250 g/ha in the series with Amaranthus (setting [1]) was 100%; in the series on Chenopodium (setting [2]) it was 100%; with Polygonum (setting [3]) it was 100%; in the series on Setaria (setting [4]), 80%; in the series on Viola (setting [5]) it was 95%. In addition, in the series on Wheat (setting [6]), the plant injury at 250 g/ha was determined as 10%.
For `CC(Nc1nc(N)nc(C(F)(F)C(F)(F)F)n1)c1ccc(Cl)cc1` (centres unmarked), the pest or weed control at 250 g/ha in the series on Amaranthus (setting [1]), in the series with Chenopodium (setting [2]), in the series with Polygonum (setting [3]), with Setaria (setting [4]) and in the series on Viola (setting [5]) was 100% throughout. Moreover, in the series with Wheat (setting [6]), the plant injury at 250 g/ha turned out to be 10%.
As to `CC(Nc1nc(N)nc(C(F)(F)F)n1)c1ccc([S+](C)[O-])cc1` (racemic) [Example 3, 2-amino-4-trifluoromethyl-6-[1-(4-methylsulphinyl-phenyl)-ethylamino]-1,3,5-triazine], the melting point is 220 °C (dec.).
With `CC(Cl)c1nc(N)nc(NC(C)c2ccc(Cl)cc2)n1` (centres unmarked) [drawing 131], in the series with Amaranthus, the “% damage, Amaranthus” value amounted to 100%. Moreover, the “% damage, Chenopodium” value in the series on Chenopodium is 100%. In the series with Polygonum, the “% damage, Polygonum” value is listed as 100%. Further, the “% damage, Setaria” value in the series with Setaria came out at 90%. In the series with Viola, the “% damage, Viola” value turned out to be 100%. In addition, in the series on Wheat, the “% damage, Wheat” value is reported as 10%.
As to `CSc1ccc(C(C)Nc2nc(N)nc(C(Cl)Cl)n2)cc1` (centres unmarked) [drawing 113], the pest or weed control at 1000 g/ha with Amaranthus (Amaranthus, 504 h, 1000 g of ai./ha, read-out: % damage, Amaranthus) was 100%; in the series with Chenopodium (Chenopodium, 504 h, 1000 g of ai./ha, read-out: % damage, Chenopodium), 100%; with Polygonum (Polygonum, 504 h, 1000 g of ai./ha, read-out: % damage, Polygonum) it was 80%; with Setaria (Setaria, 504 h, 1000 g of ai./ha, read-out: % damage, Setaria), 90%; in the series with Viola (504 h, 1000 g of ai./ha, read-out: % damage, Viola) it was 100%. Also, in the series with Wheat (Triticum aestivum, 504 h, 1000 g of ai./ha, read-out: % damage, Wheat), the plant injury at 1000 g/ha came to 0%.
As for `CCC(Nc1nc(N)nc(C(F)(F)F)n1)c1ccc(Cl)cc1` (centres unmarked) [drawing 137], the pest or weed control at 250 g/ha was determined as 100% in the series with Amaranthus (setting [1]); 100% in the series on Chenopodium (setting [2]); 100% in the series with Polygonum (setting [3]); 95% with Setaria (setting [4]); 100% with Viola (setting [5]). Besides, the “% damage, Wheat” value in the series with Wheat was 0%.
With `COc1ccc(C(C)Nc2nc(NC(C)=O)nc(C(F)(F)F)n2)cc1` (centres unmarked) [drawing 141], the pest or weed control at 500 g/ha worked out at 100% with Amaranthus (setting [1]); 100% in the series on Chenopodium (setting [2]); 100% with Polygonum (setting [3]); 95% with Setaria (setting [4]); 100% with Viola (setting [5]). For the same molecule, the plant injury at 500 g/ha in the series with Wheat (setting [6]) was 10%.
As to `CC(Nc1nc(N)nc(C(C)(Cl)Cl)n1)c1ccc(Cl)cc1` (centres unmarked) [drawing 126], the pest or weed control at 500 g/ha in the series with Amaranthus (setting [1]) stood at 100%; in the series with Chenopodium (setting [2]) it was 100%; with Polygonum (setting [3]), 100%; with Setaria (setting [4]), 90%; in the series on Viola (setting [5]), 100%. The plant injury at 500 g/ha with Wheat (setting [6]) came to 10%.
For the molecule `CSc1ccc(C(C)Nc2nc(NC(C)=O)nc(C(F)(F)F)n2)cc1` (racemic) [Example 2, 2-acetylamino-4-trifluoromethyl-6-[1-(4-methylthio-phenyl)-ethylamino]-1,3,5-triazine], the melting point amounted to 132 °C.
With `CCc1nc(NC(C)=O)nc(NC(C)c2ccc(Cl)cc2)n1` (centres unmarked) [drawing 132], the pest or weed control at 500 g/ha with Amaranthus (setting [1]) turned out to be 100%; in the series on Chenopodium (setting [2]), 100%; in the series on Polygonum (setting [3]), 100%; in the series with Setaria (setting [4]) it was 80%; in the series with Viola (setting [5]) it was 100%. Also, the plant injury at 500 g/ha in the series with Wheat (setting [6]) was determined as 10%.
For `COc1ccc(C(C)Nc2nc(N)nc(C(F)(F)F)n2)cc1` (centres unmarked) [drawing 138], the pest or weed control at 500 g/ha in the series on Amaranthus (setting [1]), in the series on Chenopodium (setting [2]), in the series on Polygonum (setting [3]), in the series with Setaria (setting [4]) and in the series with Viola (setting [5]) was 100% in each case. The plant injury at 500 g/ha in the series on Wheat (setting [6]) is 0%.
For the molecule `CC(Nc1nc(N)nc(C(C)(Cl)Cl)n1)c1ccc(Cl)cc1` (centres unmarked) [drawing 121], the pest or weed control at 250 g/ha in the series with Amaranthus (setting [1]) is 100%; with Chenopodium (setting [2]), 100%; in the series with Polygonum (setting [3]), 100%; in the series with Setaria (setting [4]), 80%; in the series on Viola (setting [5]), 100%. The plant injury at 250 g/ha in the series on Wheat (setting [6]) stood at 10%.
For the molecule `CC(Nc1nc(N)nc(C(F)C(F)(F)F)n1)c1ccc(Cl)cc1` (centres unmarked) [drawing 117], the pest or weed control at 250 g/ha with Amaranthus (setting [1]) stood at 100%; in the series on Chenopodium (setting [2]), 100%; in the series on Polygonum (setting [3]), 100%; in the series with Setaria (setting [4]), 95%; in the series with Viola (setting [5]), 100%. In addition, in the series on Wheat (setting [6]), the plant injury at 250 g/ha came out at 10%.
Regarding `COCc1nc(NC(C)=O)nc(NC(C)c2ccc(Cl)cc2)n1` (centres unmarked) [drawing 135], the pest or weed control at 500 g/ha in the series with Amaranthus (setting [1]) was 100%; in the series with Chenopodium (setting [2]) it was 100%; with Polygonum (setting [3]), 100%; in the series on Setaria (setting [4]) it was 70%; with Viola (setting [5]) it was 100%. For the same molecule, the plant injury at 500 g/ha in the series on Wheat (setting [6]) worked out at 10%.
In the case of `CC(Nc1nc(N)nc(C(F)C(F)(F)F)n1)c1ccc(Cl)cc1` (centres unmarked) [drawing 128], the “% damage, Amaranthus” value with Amaranthus is 100%. Besides, the “% damage, Chenopodium” value in the series on Chenopodium was found to be 100%. In the series with Polygonum, the “% damage, Polygonum” value stood at 100%. For the same molecule, the “% damage, Setaria” value with Setaria was 90%. For the same molecule, the “% damage, Viola” value in the series on Viola is given as 100%. Moreover, the “% damage, Wheat” value with Wheat is given as 10%.

The values are drawn from patent US6440903B1, “Substituted 2,4-diamino-1,3,5-triazines as herbicides” (Bayer Aktiengesellschaft, priority 1996, dated 2002).
